According to patent US11622937B2, “Polyphenolic polymer to make water-insoluble molecules become water-soluble” (priority 2015, dated 2023):
Where a name gives a salt, the structure may show the parent alone.

Experiments:
[1] = cited from earlier work
[2] = Solubility with Polyphenolic Polymer in water; conditions: molecule formulated with Polyphenolic Polymer

| Compound | Reported Solubility in water [1] | Solubility with Polyphenolic Polymer in water (more than 99%) [2] |
| --- | --- | --- |
| Nc1nnc(-c2cccc(Cl)c2Cl)c(N)n1 [6-(2,3-Dichlorophenyl)-1,2,4-triazine-3,5-diamine] | Insoluble |  |
| COc1ccc2c(c1)c(CC(=O)OCC(=O)O)c(C)n2C(=O)c1ccc(Cl)cc1 [Acemetacin] | Insoluble |  |
| C[C@@H](O[C@H]1OCCN(Cc2n[nH]c(=O)[nH]2)[C@H]1c1ccc(F)cc1)c1cc(C(F)(F)F)cc(C(F)(F)F)c1 [Aprepitant] | Insoluble |  |
| O=C1CCc2ccc(OCCCCN3CCN(c4cccc(Cl)c4Cl)CC3)cc2N1 [Aripiprazole, 99%, Aripiprazole] | Insoluble |  |
| C[C@@H]1CC[C@H]2[C@@H](C)C(=O)O[C@@H]3O[C@@]4(C)CC[C@@H]1[C@]32OO4 [Artemisinin] | Insoluble |  |
| CC(=O)Oc1ccccc1C(=O)O [Aspirin] | Insoluble | Water Soluble |
| COc1ccc(CCN2CCC(Nc3nc4ccccc4n3Cc3ccc(F)cc3)CC2)cc1 [Astemizole] | Insoluble |  |
| Nc1ncn([C@@H]2O[C@H](CO)[C@@H](O)[C@H]2O)c(=O)n1 [Azacitidine (Vidaza), Azacitidine] | Insoluble |  |
| Cn1cnc([N+](=O)[O-])c1Sc1ncnc2nc[nH]c12 [Azathioprine] | Insoluble |  |
| CN1CCCC(n2nc(Cc3ccc(Cl)cc3)c3ccccc3c2=O)CC1 (stereo not shown) [Azelastine] | Insoluble | Water Soluble |
| CC[C@H]1OC(=O)[C@H](C)[C@@H](O[C@H]2C[C@@](C)(OC)[C@@H](O)[C@H](C)O2)[C@H](C)[C@@H](O[C@@H]2O[C@H](C)C[C@H](N(C)C)[C@H]2O)[C@](C)(O)C[C@@H](C)CN(C)[C@H](C)[C@@H](O)[C@]1(C)O [Azithromycin-dihydrate] | Insoluble | Water Soluble |
| CC[C@H](CC[C@@H](C)[C@H]1CC[C@H]2[C@@H]3CC=C4C[C@@H](O)CC[C@]4(C)[C@H]3CC[C@]12C)C(C)C [Beta-sitosterol] |  | Water Soluble |
| CCCC1O[C@@H]2C[C@H]3[C@@H]4CCC5=CC(=O)C=C[C@]5(C)[C@H]4[C@@H](O)C[C@]3(C)[C@]2(C(=O)CO)O1 (stereo partly shown) [Budesonide, 98%, Budesonide] | Insoluble | Water Soluble |
| CS(=O)(=O)OCCCCOS(C)(=O)=O [Busulphan] | Insoluble |  |
| CC12CCC(CC1=O)C2(C)C (stereo not shown) [Camphor] | Insoluble | Water Soluble |
| CC[C@@]1(O)C(=O)OCc2c1cc1n(c2=O)Cc2cc3ccccc3nc2-1 [Camptothecin] | Insoluble | Water Soluble |
| CCCCCOC(=O)Nc1nc(=O)n([C@@H]2O[C@H](C)[C@@H](O)[C@H]2O)cc1F [Capecitabine] | Insoluble | Water Soluble |
| NC(=O)N1c2ccccc2C=Cc2ccccc21 [Carbamazepine] | Insoluble | Water Soluble |
| CC1(C)S[C@@H]2[C@H](NC(=O)C(C(=O)O)c3ccccc3)C(=O)N2[C@H]1C(=O)O (stereo partly shown) [Carbenicillin disodium] | Insoluble |  |
| COc1ccccc1OCCNCC(O)COc1cccc2[nH]c3ccccc3c12 (stereo not shown) [Carvedilol] | Insoluble |  |
| CO/N=C(\C(=O)N[C@@H]1C(=O)N2C(C(=O)O)=C(COC(C)=O)CS[C@H]12)c1csc(N)n1 [Cefotaxime] | Insoluble |  |
| Cc1ccc(-c2cc(C(F)(F)F)nn2-c2ccc(S(N)(=O)=O)cc2)cc1 [Celecoxib] | Insoluble | Water Soluble |
| O=C1CCc2cc(OCCCCc3nnnn3C3CCCCC3)ccc2N1 [Cilostazol] | Insoluble | Water Soluble |
| CC[C@H]1OC(=O)[C@H](C)[C@@H](O[C@H]2C[C@@](C)(OC)[C@@H](O)[C@H](C)O2)[C@H](C)[C@@H](O[C@@H]2O[C@H](C)C[C@H](N(C)C)[C@H]2O)[C@](C)(OC)C[C@@H](C)C(=O)[C@H](C)[C@@H](O)[C@]1(C)O [Clarithromycin] | Insoluble | Water Soluble |
| COC(=O)[C@H](c1ccccc1Cl)N1CCc2sccc2C1 [Clopidogrel Sulfate] | Insoluble |  |
| COC1=C(OC)C(=O)C(C/C=C(\C)CC/C=C(\C)CC/C=C(\C)CC/C=C(\C)CC/C=C(\C)CC/C=C(\C)CC/C=C(\C)CC/C=C(\C)CC/C=C(\C)CCC=C(C)C)=C(C)C1=O [CoQ10] | Insoluble | Water Soluble |
| COc1cccc2c1C(=O)c1c(O)c3c(c(O)c1C2=O)C[C@@](O)(C(C)=O)C[C@@H]3O[C@H]1C[C@H](N)[C@H](O)[C@H](C)O1 [Daunorubicin hydrochloride] | Insoluble |  |

| Compound | Reported Solubility in water [1] | Solubility with Polyphenolic Polymer in water (more than 99%) [2] |
| --- | --- | --- |
| C[C@@H]1C[C@H]2[C@@H]3CCC4=CC(=O)C=C[C@]4(C)[C@@]3(F)[C@@H](O)C[C@]2(C)[C@@]1(O)C(=O)CO [Dexamethasone] | Insoluble | Water Soluble |
| O=C(O)Cc1ccccc1Nc1c(Cl)cccc1Cl [Diclofenac(pain), Diclofenac] | Insoluble |  |
| CN1C[C@H](C(=O)N[C@]2(C)O[C@@]3(O)[C@@H]4CCCN4C(=O)[C@H](Cc4ccccc4)N3C2=O)C[C@@H]2c3cccc4[nH]cc(c34)C[C@H]21 [Dihydroergotamine Mesylate] | Insoluble | Water Soluble |
| CC(=O)O[C@@]12CO[C@@H]1C[C@H](O)[C@@]1(C)C(=O)[C@H](O)C3=C(C)[C@@H](OC(=O)[C@H](O)[C@@H](NC(=O)OC(C)(C)C)c4ccccc4)C[C@@](O)([C@@H](OC(=O)c4ccccc4)[C@H]21)C3(C)C [Docetaxel] | Insoluble | Water Soluble |
| O=c1[nH]c2ccccc2n1CCCN1CCC(n2c(=O)[nH]c3cc(Cl)ccc32)CC1 [Domperidone] | Insoluble |  |
| COc1cccc2c1C(=O)c1c(O)c3c(c(O)c1C2=O)C[C@@](O)(C(=O)CO)C[C@@H]3O[C@H]1C[C@H](N)[C@H](O)[C@H](C)O1 [Doxorubicin] | Insoluble | Water Soluble |
| C/C(=C\c1csc(C)n1)[C@@H]1C[C@@H]2O[C@@H]2CCC[C@H](C)[C@H](O)[C@@H](C)C(=O)C(C)(C)[C@@H](O)CC(=O)O1 [Epothilone A] |  | Water Soluble |
| CN(C)CCC[C@@]1(c2ccc(F)cc2)OCc2cc(C#N)ccc21 [Escitalopram] | Insoluble |  |
| CCc1cccc2c3c([nH]c12)C(CC)(CC(=O)O)OCC3 (stereo not shown) [Etodolac] | Insoluble |  |
| COc1cc([C@@H]2c3cc4c(cc3[C@@H](O[C@@H]3O[C@@H]5CO[C@@H](C)O[C@H]5[C@H](O)[C@H]3O)[C@H]3COC(=O)[C@H]23)OCO4)cc(OC)c1O [Etoposide] | Insoluble |  |
| NC(N)=Nc1nc(CSCCC(N)=NS(N)(=O)=O)cs1 [Famotidine] | Insoluble |  |
| CC(C)(C)NC(=O)[C@H]1CC[C@H]2[C@@H]3CC[C@H]4NC(=O)C=C[C@]4(C)[C@H]3CC[C@]12C [Finasteride] | Insoluble |  |
| COC1=CC(=O)C[C@@H](C)[C@]12Oc1c(Cl)c(OC)cc(OC)c1C2=O [Griseofulvin] | Insoluble |  |
| COc1ccc2c(c1)c(CC(=O)O)c(C)n2C(=O)c1ccc(Cl)cc1 [Indomethacin] | Insoluble |  |
| N[C@@H](Cc1ccc(N(CCCl)CCCl)cc1)C(=O)O [Melphalan(cancer), Melphalan] |  | Water Soluble |
| CC[C@H](C)C(=O)O[C@H]1CCC=C2C=C[C@H](C)[C@H](CC[C@@H]3C[C@@H](O)CC(=O)O3)[C@H]21 [Mevastatin] | Insoluble |  |
| COCCOC(=O)C1=C(C)NC(C)=C(C(=O)OC(C)C)C1c1cccc([N+](=O)[O-])c1 (stereo not shown) [Nimodipine] | Insoluble |  |
| CCn1cc(C(=O)O)c(=O)c2cc(F)c(N3CCNCC3)cc21 [Norfloxacin(antibiotic), Norfloxacin] | Insoluble |  |
| C[C@@H]1[C@H](O)[C@@H](C)/C=C/C=C/CC/C=C/C=C/C=C/C=C/C(O[C@H]2O[C@H](C)[C@@H](O)[C@H](N)[C@@H]2O)CC2O[C@](O)(CC(O)C(O)CCC(O)CC(O)CC(O)CC(=O)O[C@H]1C)CC(O)C2C(=O)O (stereo partly shown) [Nystatin mycostatin] |  | Water Soluble |
| Cc1cc2c(s1)Nc1ccccc1N=C2N1CCN(C)CC1 [Olanzapine] | Insoluble |  |
| C=CC(=O)N1CCC[C@@H](n2nc(-c3ccc(Oc4ccccc4)cc3)c3c(N)ncnc32)C1 [PCI-32765] | Insoluble |  |
| CC(=O)O[C@H]1C(=O)[C@@]2(C)[C@H]([C@H](OC(=O)c3ccccc3)[C@]3(O)C[C@H](OC(=O)[C@H](O)[C@@H](NC(=O)c4ccccc4)c4ccccc4)C(C)=C1C3(C)C)[C@]1(OC(C)=O)CO[C@@H]1C[C@@H]2O [Paclitaxel from Taxus Brevifolia, Paclitaxel] | Insoluble |  |
| CC(=O)Nc1ccc(O)cc1 [Paracetamol] | Insoluble |  |
| C[C@]12C=CC(=O)C=C1CC[C@@H]1[C@@H]2C(=O)C[C@@]2(C)[C@H]1CC[C@]2(O)C(=O)CO [Prednisone] | Insoluble |  |
| Oc1ccc(C=Cc2cc(O)cc(O)c2)cc1 [Resveratrol] | Insoluble |  |
| Ivermectin |  | Water Soluble |
| Pyrethrin |  | Water Soluble |
